Measured values from patent publication EP4512427A1, “ANTIBODY-DRUG CONJUGATES BASED ON MOLECULAR GLUE DEGRADERS AND USES THEREOF” (Mablink Bioscience, priority 2023, dated 2025).

Tests used:
in vitro = settings: PAMPA, pH 7.4
Protocol: Stock solutions of compounds of the invention were prepared in dimethyl sulfoxide (DMSO) to a final concentration of 10 mM. Each stock solution was diluted to 50 µM in pH 7.4 Prisma HT buffer (pION) in the presence of 10% MeOH (v/v). 200 µL were added to each well of the donor plate in quintuplicate. […] The acceptor filter plate was carefully placed on top of the donor plate to form a "sandwich." The sandwich was incubated at 25°C for 5 h, at 300 rpm. UV-vis spectra of the solutions in the blank, reference, acceptor, and donor plates were measured using a Tecan Infinite 200 PRO M Nano Plus microplate reader.

MDR1 = molecular target: T1, MDR1 (Homo sapiens, UniProt P08183); experiment: MDR1 efflux substrate assay in MDCK-MDR1; type: in vitro ADME; settings: for efflux ratio at 60 min, 5 µM / Papp A→B at 60 min, 5 µM / Papp B→A at 60 min, 5 µM: dog; for efflux ratio at 60 min, 5 µM: MDCK-MDR1, pH 7.4, read-out: Efflux ratio B/A; for Papp A→B at 60 min, 5 µM / Papp B→A at 60 min, 5 µM: MDCK-MDR1, 5µM, pH 7.4; for Papp A→B at 60 min, 5 µM: read-out: Papp A (donor) to B (acceptor); for Papp B→A at 60 min, 5 µM: read-out: Papp B (acceptor) to A (donor); for MDR1 efflux potential: in words
T1 construct: host or cells: MDCK-MDR1 (Preadyport)
T1 sequence (P08183 whole entry): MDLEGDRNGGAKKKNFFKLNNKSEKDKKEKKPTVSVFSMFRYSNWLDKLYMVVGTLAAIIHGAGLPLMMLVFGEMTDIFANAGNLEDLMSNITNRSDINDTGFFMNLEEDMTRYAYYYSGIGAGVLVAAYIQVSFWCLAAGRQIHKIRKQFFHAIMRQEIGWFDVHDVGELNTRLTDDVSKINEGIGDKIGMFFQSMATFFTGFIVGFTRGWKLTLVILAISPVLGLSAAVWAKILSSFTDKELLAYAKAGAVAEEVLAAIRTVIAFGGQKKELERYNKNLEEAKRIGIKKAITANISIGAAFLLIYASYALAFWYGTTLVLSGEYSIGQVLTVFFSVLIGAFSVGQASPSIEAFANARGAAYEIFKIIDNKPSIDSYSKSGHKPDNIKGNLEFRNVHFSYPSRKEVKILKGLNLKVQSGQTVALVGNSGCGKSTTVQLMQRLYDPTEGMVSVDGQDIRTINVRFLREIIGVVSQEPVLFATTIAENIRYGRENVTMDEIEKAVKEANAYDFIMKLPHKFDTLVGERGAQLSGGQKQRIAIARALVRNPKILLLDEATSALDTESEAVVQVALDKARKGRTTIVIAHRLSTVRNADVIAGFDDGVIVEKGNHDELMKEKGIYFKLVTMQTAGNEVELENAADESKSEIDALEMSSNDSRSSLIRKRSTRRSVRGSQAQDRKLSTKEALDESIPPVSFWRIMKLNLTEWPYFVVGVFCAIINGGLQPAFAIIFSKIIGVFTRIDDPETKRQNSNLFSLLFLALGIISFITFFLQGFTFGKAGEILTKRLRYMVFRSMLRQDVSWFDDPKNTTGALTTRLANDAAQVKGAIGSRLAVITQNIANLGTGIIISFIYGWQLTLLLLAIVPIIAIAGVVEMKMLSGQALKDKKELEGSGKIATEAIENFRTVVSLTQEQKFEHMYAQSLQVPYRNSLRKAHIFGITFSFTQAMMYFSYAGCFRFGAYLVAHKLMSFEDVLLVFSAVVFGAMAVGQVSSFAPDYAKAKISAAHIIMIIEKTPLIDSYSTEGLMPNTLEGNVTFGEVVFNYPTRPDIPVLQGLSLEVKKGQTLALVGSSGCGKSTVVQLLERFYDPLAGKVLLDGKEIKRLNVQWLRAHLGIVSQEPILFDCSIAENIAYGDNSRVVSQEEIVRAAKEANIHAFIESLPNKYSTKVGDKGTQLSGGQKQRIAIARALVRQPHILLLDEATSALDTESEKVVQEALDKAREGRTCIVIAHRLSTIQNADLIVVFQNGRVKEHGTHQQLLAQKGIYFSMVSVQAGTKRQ
Protocol: (§1) MDR1 and BCRP efflux substrate assays were conducted in MDCK-MDR1 and MDCK-BCRP in vitro models (Preadyport™, Solvo Biotech) at Symeres (Nederland). Compound of the invention (donor well concentration of 5µM) were incubated in cell monolayer 24-transwell Preadyport system, using Preadyport recommended pH 7.4 assay buffer (donor and receiver wells). After 60 min of incubation (no shaking), samples are collected and suspended into triple volume of 66% cold acetonitrile. Samples are stored at -20°C until thawed, centrifuged and analyzed by LC-MS. Quinidine was used a positive control for the MDR1 assay, and prazosin was used as a positive control for the BCRP assay. Exatecan was used as a control, known not to be an MDR1 substrate. Residual DMSO content from compounds stock solutions was below 1% (v/v). The assay was performed in duplicate. The quantification of test compounds in donor or receptor compartment is conducted using relative LC/MS peak areas (samples of initial incubation solutions are used as a single point calibrator), without any spiked standard samples. The data is used for estimating apparent permeability (Papp) and calculation of efflux ratio.

NCI-N87 = experiment: In vitro cytotoxicity assay (MTT); type: cell-based, human; settings: Homo sapiens, 6 days incubation
Protocol: (§2) In vitro cytotoxicity of compounds of the disclosure was assessed on several cancerous human cell lines. Cells were plated in 96-well plates at an appropriate density depending on the cell line (between 1000 and 10 000 cells/well in 100µL of appropriate culture media) and incubated at 37°C for 24 hours. Serial dilutions of the tested compound previously dissolved in culture media (50µL) were added, and incubation was carried at 37°C out for 6 days. MTT (5mg/mL in PBS, 20µL, Sigma-Aldrich) was added into the wells, and incubation was continued for 1 to 4 hours at 37°C. Culture media was then carefully removed, and well content was homogeneously dissolved with acidified isopropanol. Absorbance values were measured on a microplate reader using a wavelength of 570 nm (with a reference wavelength of 690 nm). The IC50 concentration values compared to untreated control cells were determined using inhibition dose response curve fitting (GraphPad Prism 9). Exatecan mesylate (cat#HY-13631A) and CR8 (CAS# 294646-77-8; cat#HY-18340) were purchased from MedChemExpress (China).

BT-474 = experiment: In vitro cytotoxicity assay (MTT); type: cell-based, human; settings: Homo sapiens, BT-474, 144 h
Protocol: as §2

MDA-MB-231 = experiment: In vitro cytotoxicity assay (MTT); type: cell-based, human; settings: Homo sapiens, 6 days incubation
Protocol: as §2

MDA-MB-453 = experiment: In vitro cytotoxicity assay (MTT); type: cell-based, human; settings: Homo sapiens, 6 days incubation
Protocol: as §2

SKBR-3 = experiment: In vitro cytotoxicity assay (MTT); type: cell-based, human; settings: Homo sapiens, SK-BR-3, 144 h, 6 days incubation
Protocol: as §2

BCRP = molecular target: T2, BCRP (Homo sapiens, UniProt Q9UNQ0); experiment: BCRP efflux substrate assay in MDCK-BCRP; type: in vitro ADME; settings: for efflux ratio at 60 min, 5 µM / Papp A→B at 60 min, 5 µM / Papp B→A at 60 min, 5 µM: dog, pH 7.4, MDCK-BCRP; for efflux ratio at 60 min, 5 µM: read-out: Efflux ratio B/A; for Papp A→B at 60 min, 5 µM: read-out: Papp A (donor) to B (acceptor); for Papp B→A at 60 min, 5 µM: read-out: Papp B (acceptor) to A (donor); for BCRP efflux potential: in words
T2 construct: host or cells: MDCK-BCRP (Preadyport)
T2 sequence (Q9UNQ0 1-655): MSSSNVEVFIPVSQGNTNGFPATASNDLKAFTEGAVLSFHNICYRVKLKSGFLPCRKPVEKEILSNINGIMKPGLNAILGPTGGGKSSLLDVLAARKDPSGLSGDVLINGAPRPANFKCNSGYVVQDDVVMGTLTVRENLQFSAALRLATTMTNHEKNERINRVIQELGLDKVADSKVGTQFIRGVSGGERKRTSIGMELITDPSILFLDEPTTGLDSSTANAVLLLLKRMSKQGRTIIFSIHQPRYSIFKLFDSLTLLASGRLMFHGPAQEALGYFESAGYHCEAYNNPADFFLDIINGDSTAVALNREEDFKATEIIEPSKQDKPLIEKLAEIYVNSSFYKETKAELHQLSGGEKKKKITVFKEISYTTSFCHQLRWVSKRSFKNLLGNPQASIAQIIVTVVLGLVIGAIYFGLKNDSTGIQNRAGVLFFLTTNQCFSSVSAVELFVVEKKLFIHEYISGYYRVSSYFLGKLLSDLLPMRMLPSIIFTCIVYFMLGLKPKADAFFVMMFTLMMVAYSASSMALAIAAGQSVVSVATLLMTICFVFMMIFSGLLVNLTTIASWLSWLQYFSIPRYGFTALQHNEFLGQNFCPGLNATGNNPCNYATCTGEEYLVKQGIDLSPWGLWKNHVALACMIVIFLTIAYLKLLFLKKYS
Protocol: as §1

KB-1 = experiment: In vitro cytotoxicity assay (MTT); type: cell-based; settings: Homo sapiens, KB16, 144 h, 6 days incubation
Protocol: as §2

JIMT-1 = experiment: In vitro cytotoxicity assay (MTT); type: cell-based, human; settings: Homo sapiens, 144 h, 6 days incubation
Protocol: as §2

MCF-7 = experiment: In vitro cytotoxicity assay (MTT); type: cell-based; settings: Homo sapiens, MCF7, 144 h, 6 days incubation
Protocol: as §2

HT-29 = experiment: In vitro cytotoxicity assay (MTT); type: cell-based; settings: Homo sapiens, 144 h, 6 days incubation
Protocol: as §2

BXPC3 = experiment: In vitro cytotoxicity assay (MTT); type: cell-based; settings: Homo sapiens, BXPC-3, 144 h, 6 days incubation
Protocol: as §2

SMILES | Papp at 5 h, 50 µM (in vitro) [×10⁻⁶ cm/s] | efflux ratio at 60 min, 5 µM (MDR1) | Papp A→B at 60 min, 5 µM (MDR1) [×10⁻⁶ cm/s] | Papp B→A at 60 min, 5 µM (MDR1) [×10⁻⁶ cm/s] | IC50 (NCI-N87; NCI-N87, 144 h) [nM] | IC50 (BT-474; BT-474, 6 days incubation, MTT) [nM] | IC50 (MDA-MB-231; MDA-MB-231, 144 h) [nM] | IC50 (MDA-MB-453; MDA-MB-453, 144 h) [nM] | IC50 (SKBR-3) [nM] | efflux ratio at 60 min, 5 µM (BCRP) | Papp A→B at 60 min, 5 µM (BCRP) [×10⁻⁶ cm/s] | Papp B→A at 60 min, 5 µM (BCRP) [×10⁻⁶ cm/s] | IC50 (KB-1) [nM] | MDR1 efflux potential (MDR1) | BCRP efflux potential (BCRP) | IC50 (JIMT-1) [nM] | IC50 (MCF-7) [nM] | IC50 (HT-29) [nM] | IC50 (BXPC3) [nM] | also measured
N[C@H]1CCCC[C@@H]1Nc1nc(NCc2ccc(-c3ccccn3)cc2)n2ncc(Br)c2n1 [Compound 2671] | 176 | 43.7 | 0.99 | 43.2 | 1.47 | 3.34 | 1.74 | 2.22 | 0.42 | 4.54 | 10.1 | 46 | 7.6 |  |  |  |  |  |  | 
N[C@H]1CCN(c2nc(NCc3ccc(-c4ccccn4)cc3)n3ncc(Br)c3n2)C1 [Compound 2655] | 125 | 5.25 | 5.13 | 26.9 | 1.95 | 1.57 | 0.54 | 0.97 | 0.14 | 3.47 | 11.1 | 38.7 | 1.66 | low level | low level |  |  |  |  | 
CN(CCN)c1nc(NCc2ccc(-c3ccccn3)cc2)n2ncc(Br)c2n1 [Compound 2600] | 90 | 28.9 | 2.05 | 59.3 | 1.32 | 1.18 | 0.29 | 1.17 | 1.69 | 2.1 | 22.4 | 47.1 | 1.48 | low level | low level | 0.19 | 12.2 | 0.28 | 1.16 | 
N[C@H]1CCC[C@@H]1Nc1nc(NCc2ccc(-c3ccccn3)cc2)n2ncc(Br)c2n1 [Compound 2668] | 164 | 41.6 | 1.36 | 56.4 | 0.84 | 2.16 | 0.82 | 1.78 | 0.2 | 6.99 | 10.2 | 71 | 2.99 |  |  |  |  |  |  | 
NCCCCNc1nc(NCc2ccc(-c3ccccn3)cc2)n2ncc(Br)c2n1 [Compound 2585] | < 0.3 |  | < 3.4 | 34 | 15.4 | 1.77 | 24.7 | 26.8 | 38.9 | 27.9 | 1.75 | 49 |  |  |  | 7.86 |  |  |  | 
N[C@H]1CC[C@@H](Nc2nc(NCc3ccc(-c4ccccn4)cc3)n3ncc(Br)c3n2)CC1 [Compound 2568] | 88 |  | < 0.54 | 40.5 |  |  |  |  | 4.36 | 23.6 | 2.52 | 59.5 | 4.95 |  |  | 0.62 | 11.6 | 0.46 | 4.86 | IC50 (NCI-N87; 144 h): 2.22 nM; IC50 (BT-474): 1.75 nM; IC50 (MDA-MB-231; 144 h): 0.98 nM; IC50 (MDA-MB-453; 144 h): 1.67 nM
